Test results: ChEMBL document CHEMBL4177535 (Bioorg Med Chem Lett, 2017)

What was measured:
[1] = test system: Human immunodeficiency virus 1; test: Antiviral activity against R5 tropic HIV-1 BAL infected in human PBL assessed as reduction in Agp24 level at 100 uM measured after 3 days by ELISA relative to control; format: functional; set-up: scale not given: the % may be the effect or the level left
[2] = molecular target: Rap guanine nucleotide exchange factor 3 (Homo sapiens, UniProt O95398); test: Activation of EPAC1 DEP1 deletion mutant (unknown origin) expressed in mouse NIH-3T3-A14 cells assessed as increase in Rap1b- fluorescent nucleotide methylontraniloyl-GDP nucleotide exchange by fluorescence assay; format: cell-based
Rap guanine nucleotide exchange factor 3, sequence (O95398 whole entry, looked up): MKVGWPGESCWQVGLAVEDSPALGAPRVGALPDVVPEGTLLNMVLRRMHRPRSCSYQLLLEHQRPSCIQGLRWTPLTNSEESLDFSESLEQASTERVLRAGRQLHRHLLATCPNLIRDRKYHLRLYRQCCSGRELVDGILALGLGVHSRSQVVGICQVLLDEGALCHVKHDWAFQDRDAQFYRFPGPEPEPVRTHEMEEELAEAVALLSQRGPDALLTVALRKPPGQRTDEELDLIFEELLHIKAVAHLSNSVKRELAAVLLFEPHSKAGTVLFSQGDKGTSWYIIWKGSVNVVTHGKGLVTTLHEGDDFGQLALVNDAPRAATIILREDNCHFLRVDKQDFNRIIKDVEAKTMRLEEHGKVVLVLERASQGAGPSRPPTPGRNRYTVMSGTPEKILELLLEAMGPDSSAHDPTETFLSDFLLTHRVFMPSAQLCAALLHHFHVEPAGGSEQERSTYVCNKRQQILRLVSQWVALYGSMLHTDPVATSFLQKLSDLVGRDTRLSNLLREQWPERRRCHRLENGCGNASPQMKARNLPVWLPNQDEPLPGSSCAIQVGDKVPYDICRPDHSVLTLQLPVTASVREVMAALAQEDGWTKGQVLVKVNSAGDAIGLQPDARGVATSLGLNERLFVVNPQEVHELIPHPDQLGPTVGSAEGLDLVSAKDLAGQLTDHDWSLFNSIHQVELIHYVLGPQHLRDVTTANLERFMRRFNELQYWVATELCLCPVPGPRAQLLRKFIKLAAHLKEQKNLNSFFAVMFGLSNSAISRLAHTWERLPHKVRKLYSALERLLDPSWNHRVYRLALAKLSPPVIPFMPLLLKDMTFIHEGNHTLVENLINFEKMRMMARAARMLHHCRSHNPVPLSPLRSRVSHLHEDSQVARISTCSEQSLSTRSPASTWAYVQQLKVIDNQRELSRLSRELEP

Question: For `CO[C@@H]1[C@@H]2OP(=O)(O)OC[C@H]2O[C@H]1n1c(Sc2ccc(Cl)cc2)nc2c(N)ncnc21`, which Activity [1] is on record?
Answer: 40%

Question: What about the EC50 [2] of the same molecule?
Answer: 2200 nM
